Data taken from patent publication US20220193111A1, “Method of Treatment” (The University Court of the University of Edinburgh, priority 2018, published 2022).

How the values were obtained:
skin wounds = experiment: Mouse model of skin wound healing (full-thickness excisional wounds); type: in vivo; settings: for vessel density (CD31 positive vessels) / wound perfusion (laser Doppler): topical 1 μg/wound; for wound closure / expression of targets TGFB2 and SMAD2 in wound: topical 1 μg/wound every second day; for wound closure: 7 days; for wound perfusion (laser Doppler): 5 days post wounds
Protocol: All experiments involving mice were performed in accordance with the guidance and the operation of Animals (Scientific Procedures) Act 1986 and prior approval of the UK Home Office and the University of Edinburgh ethic committee. Skin wound healing protocol has been performed as described before^54-56. CD-1 female mice (7-9-week-old) (n=8 per group) were randomly assigned a treatment group and anaesthetized with isofluorane. Two full-thickness excisional wounds were made to the shaved dorsal skin. Full-thickness excisional wounds were made by picking up a fold of skin and using a sterile, disposable 5-mm biopsy punch (Kai Industries), resulting in generation of one wound on each side of the midline. Control oligonucleotides (scramble sequence), miR-148b mimic, Cy3-labeled miR-148b mimic or anti-miR-148b or SMAD2 siRNA (1 μg/wound) were delivered topically by pipette into the wound cavity (10 μl in a vehicle of 30% Pluronic F-127 gel [is liquid at 4° C. but solidifies at body temperature]; Sigma Aldrich). Mimics were initially delivered after 3 days, whereas anti-miR and siRNA were delivered immediately after wounding. The treatment was performed every second day for 7 days. Wounds were photographed using an Olympus camera on days 0, 2, 4, 6, and 7 after wounding. Wound areas were calculated as previously described^54, 55. To this aim, two perpendicular diameters of the wound were measured by using a Vernier caliper and wound area was calculated using a standard formula for the area of an ellipse (semi-major diameter X semi-minor diameter X Pi). The superficial blood flow of the wounds was sequentially analysed by colour laser Doppler (Colour laser Doppler, Moor, UK), and the ratio of blood flow between the mimic or anti-miR or siRNA treated and the control treated wounds was calculated. Wound size and Doppler analysis was performed in blinded fashion.
Wounds were harvested, prepared, and analysed essentially as previously described^54-56. At days 5 or 7 post-wounding, wounds were harvested and fixed in 10% buffered formalin (16 h at 4° C., Sigma) for embedding in paraffin. Sectioning was done through the wound beyond the midpoint and wound centres as identified by staining with Haematoxylin and Eosin (Sigma). Sections were deparaffinised, rehydrated and stained with rat anti-mouse polyclonal CD31 (Abcam, ab28364, 1:50), α-SMA (Sigma, A2547, 1:100) rabbit anti-mouse FSP-1 (Abcam, ab41532, 1:50), and SLUG (Abcam, […], 1:200); all antibodies overnight at 4° C.
Zeiss LSM 780 Confocal Microscope (Zeiss). Vascular density in wounds was counted after staining for CD31 and α-SMA. Ten fields per section/animal (n=8 animal; 400× magnification) were randomly examined and averaged to analyse the number of CD31-positive blood vessels in the wound edges. Images collection was performed manually. Image analysis was performed using Image J software as previously reported in^54. Vascular density is expressed per square millimetre. EndMT of ECs was assessed by FSP-1 and SLUG staining combined with CD31 staining. CD31-FSP-1 and CD31-SLUG double positive vessels are expressed as percentage of positive vessels. For analysis of fibrosis: the slides of the staining were examined and photomicrographed in a blinded fashion using a light microscope (Axioscope 2; Zeiss). Six images per slide were captured at 400× magnification for both histological staining. The colour deconvolution ImageJ software was used to evaluate the percentage of red staining which indicate the presence of collagen fibres in the tissue. The morphometric analysis corresponding to the red colours was measured as the percentage of total pixels in each image, using the Threshold (Image J software).

HUVECs [1] = experiment: ECIS migration assay; type: cell-based, human; settings: transfected 48 hrs (mimic 25 nM, anti-miR 75 mM)
Protocol: Confluent HUVECs were transfected with controls or miR-148b mimic or anti-miR-148b and, plated on the ECIS chip array (8W1E or 8W10E). The migration speed was calculated in μm/h, capacitance of the plasma membrane is Cm (μF/cm^2) as reported in Giaever, I, and Keese, C R (1991)^29.

HUVECs [2] = experiment: Matrigel assay (tube formation); type: cell-based, human; settings: transfected 48 hrs (mimic 25 nM, anti-miR 75 mM)
Protocol: (§1) Lipofectamine RNAiMAX (Thermo Fisher Scientific) was used to transfect HUVECs with miR-148b mimic, anti-miR-148b and mimic or anti-miR control (25 nM and […], respectively final concentration) or with siRNA targeting SMAD2 (20 nM final concentration), according to the manufacturer's instructions. jetPEI-HUVECs (Polyplus) was used to transfect HUVECs with DNA plasmids. The following functional assays were performed: BrdU incorporation assay using Cell Proliferation colorimetric assay (Roche); Matrigel assay with HUVECs was performed as previously described using BD Matrigel Basement Membrane Matrix (BD Biosciences)^53.

HUVECs [3] = experiment: BrdU incorporation assay (EC proliferation); type: cell-based, human; settings: transfected 48 hrs (mimic 25 nM, anti-miR 75 mM)
Protocol: as §1

Molecule | collagen deposition (PicroSirius Red) (skin wounds; day 7 after wounding) | CD31-FSP-1 or CD31-SLUG double-positive vessels in wound edge (skin wounds; delivered immediately after wounding and every two days, day 7) | skin vessels that demonstrated mesenchymal transition (EndMT) (skin wounds; following delivery to the wounds) | vessel density (CD31 positive vessels) (skin wounds) | wound closure (skin wounds) | expression of targets TGFB2 and SMAD2 in wound (skin wounds; day 7 after wounding) | wound perfusion (laser Doppler) (skin wounds) | total number of FSP-1 positive cells in wounds (skin wounds; vs control oligonucleotide-treated wounds, day 7) | EC migration (migration speed) (HUVECs [1]) | tube formation / tubulogenesis in Matrigel assay (total tubules length) (HUVECs [2]) | proliferation of HUVECs (BrdU incorporation) (HUVECs [3]) | miR-148b expression in wound (skin wounds; topical, starting 3 days after wounding, day 7)
anti-miR-148b: miR-148b inhibitor oligonucleotide; suitable inhibitor: hsa-miR-148b-3p miRCURY LNA inhibitor, CAAAGTTCTGTGATGCACTG (SEQ ID NO: 6) (commercial miRCURY LNA inhibitor, LNA positions not given here) | did not detect any increase | comprised of CD31-FSP-1 or CD31-SLUG double-positive vessels | around 20% | without effecting | markedly attenuated | increased | without effecting | increase | did not cause a change | did not cause a change | decreased | 
miR-148b mimic: miR-148b mimic oligonucleotide; in a particular embodiment has SEQ ID NO: 1, the human precursor miR-148b sequence (nucleic acid, listed as RNA, chemistry not given here) CAAGCACGAUUAGCAUUUGAGGUGAAGUUCUGUUAUACACUCAGGCUGUGGCUCUCUGAAAGUCAGUGCAUCACAGAACUUUGUCUCGAAAGCUUUCUA |  |  |  | significant increase | accelerated | decreasing | significant increase |  | significantly elevated | significantly elevated | significantly increased | increased
